Reference: patent US20230112444A1, “COMBINATION THERAPIES OF CHIMERIC ANTIGEN RECEPTORS TARGETING B-CELL […] AND GAMMA SECRETASE INHIBITORS” (priority 2020, published 2023)
pEC50: −log10 of the molar value. Like-named read-outs stand apart in the source and are kept apart here.

Tests used:
gamma secretase [1] = assay: Surface BCMA by flow cytometry / inhibition of gamma secretase activity in MM.1S cells exposed to PF-03084014; type: cell-based, human
Method: (§1) The BCMA-expressing multiple myeloma cell lines MM.1S and Molp-8 (ATCC), and the BCMA-negative acute lymphocytic leukemia cell line REH (ATCC) were expanded in RPMI medium containing L-glutamine and 10% FBS in a humidified CO2 incubator set to 37 degrees. The gamma secretase inhibitor (GSI) PF-03084014 (nirogacestat in the hydrobromide salt form, Sigma-Aldrich, #PZ0298) was diluted in H2O at mg/mL and further diluted in cell culture medium as needed. Cells were cultured in the presence of increasing concentrations of PF-03084014 or vehicle (control) in a humidified CO2 incubator set to 37° C. for 4 hours or 24 hours. Cells were then harvested by centrifugation for 5 min at 400×g and stained with a phycoerythrin (PE)-labeled anti-human BCMA antibody (BioLegend, Cat #357504) for 30 min at 4° C. Samples were analyzed by flow cytometry using a Cytoflex flow cytometer (Beckman Coulter) and expression levels of BCMA (mean fluorescence intensity, MFI) were determined using FlowJo version 10.4.1. Fold-change in surface BCMA was calculated as the MFI value of GSI-treated cells divided by the MFI value of cells receiving vehicle control. Maximal (100%) inhibition of gamma-secretase activity was defined as the maximal fold-change in surface BCMA. To obtain half-maximal effective concentration (EC50) values, gMFI was plotted as a function of the logarithm of the concentration of PF-03084014. The data was then fitted using a non-linear regression (four-parameter logistic curve) function and EC50 was calculated using GraphPad.
(§2) In a separate experiment, cytolytic activities of BCMA CAR-T cells were evaluated after the target multiple myeloma cells were first pre-incubated with PF-03084014. FIG. 25A depicts the cell surface expression level of BCMA on the multiple myeloma cell line MM.1S and the BCMA negative control cell line […] after a 24-hour culture in the presence of increasing concentrations of the gamma secretase inhibitor PF-03084014. The data is shown as mean fluorescence intensity (MFI) values of BCMA. FIG. 25B depicts the cytolytic activity of BCMA CAR T cells against MM.1S cells previously treated with PF-03084014 for 24 hours. In the cytolytic assay, BCMA CAR T cells and target cells were co-cultured at different effector to target (E:T) ratios for 24 hours and residual target cell viability was measured using bioluminescence. Results are shown as mean+/−SEM.

gamma secretase [2] = assay: Surface BCMA by flow cytometry / inhibition of gamma secretase activity in Molp-8 cells exposed to PF-03084014; type: cell-based, human
Method: as §1

BCMA-negative REH cells = assay: Surface BCMA by flow cytometry in BCMA-negative REH control cells exposed to PF-03084014; type: cell-based, human; details: REH negative control cell line, 4-hour treatment
Method: as §1, with “To obtain half-maximal effective concentration (EC50) values, gMFI was plotted as a function of the logarithm of the concentration of PF-03084014.” left out

BCMA CAR-T cells = assay: Target-dependent BCMA CAR-T cell proliferation in the presence of PF-03084014 (co-culture with REH-BCMA cells); type: cell-based, human; details: Day 5, up to the highest concentration (FIG. 23)
Source text: A BCMA-negative acute lymphocytic leukemia cell line (REH) was genetically modified to overexpress BCMA with the use of a lentiviral vector encoding the human BCMA protein under regulatory control of the EF1alpha promoter (REH-BCMA cells). BCMA-overexpressing cells co-expressing luciferase and green fluorescent protein (GFP) were then created by transducing the cells with a Luc2AGFP/Blasticidin lentiviral vector following the manufacturer's recommendations. The exemplary BCMA CAR tested in the experiments comprises the VH amino acid sequence of SEQ ID NO: 33 and VL amino acid sequence of SEQ ID NO: 34). The BCMA CAR-T cells were generated and cryopreserved as previously described (Sommer et al., Molecular Therapy 2019, 27 (6): 1126-1138), thawed, and used in the assays as follows. Briefly, 5×10^5 CAR^+ T cells were co-cultured with 2×10^6 REH-BCMA cells in 2.5 mL of target cell medium (RPMI with L-glutamine, 10% FBS) without IL-2 using G-Rex 24-well plates. PF-03084014 was added to cells at increasing concentrations whereas the control wells received vehicle. […] On Day 5, cells were counted and the percentage of residual target cells and CAR-T cells were determined by flow cytometry analysis. […] Target-cell dependent proliferation/persistence in the presence or absence of PF-03084014 was determined by dividing the total number of CAR^+ cells by the starting cell number (5×10^5).

[3] = test system: MM.1S, Molp-8 and REH-BCMA cells; assay: In vitro cytolytic activity of BCMA CAR-T cells in the presence of PF-03084014 (luciferase); type: cell-based, human; details: PF-03084014 0.01 μM to 10 μM added during 24 hour co-culture, E:T 1:3, 1:1, 3:1 (FIG. 24)
Method: The multiple myeloma cell lines MM.1S and Molp-8 and the BCMA-overexpressing REH cell line (REH-BCMA cells) were used in these assays. The target cell lines have been modified to constitutively express the luciferase gene which allows assessment of cell viability via luminescence. The cytotoxic activity of BCMA CAR-T cells was determined by measuring the reduction of luminescence signal from live target cells after 24 hour co-culture with BCMA CAR-T cells at increasing effector to target (E:T) ratios (1:3, 1:1, 3:1). Briefly, 2×10^4 luciferase-expressing target cells were co-cultured with BCMA CAR-T cells at defined E:T ratios in target cell culture medium (RPMI with L-glutamine, 10% FBS) without IL-2. The GSI PF-03084014 was added to wells at increasing concentrations (0.01 μM to 10 μM) and cells were cultured in a humidified CO2 incubator set to 37° C. for 24 hours. Following the incubation period, 100 μL of Bright-GLO reagent (Promega) were added and luminescence was read on a luminometer (Spectramax; Molecular Devices). Relative luminescence units (RLU) were converted to percentage of lysed target cells using the formula 100×[1−(RLUtest/RLUcontrol)]. Untreated target cells were used to determine RLU control.

MM.1S cells = assay: Cytolytic activity of BCMA CAR T cells against target cells pre-incubated with PF-03084014; type: cell-based, human; details: MM.1S target cells pre-incubated with PF-03084014 for 24 hours, then 24 hours co-culture (FIG. 25B)
Method: as §2

[4] = Phase 1 dose-finding study (A8641014) of nirogacestat, minimum concentration; type: in vivo, human; details: 100 mg BID, solid tumor patients; conversion of ng/mL value
Method: See, e.g., FIG. 22C. […] A dose of 100 mg BID nirogacestat is expected to maintain serum concentrations of nirogacestat at or above the levels required to prevent the cleavage of BCMA by gamma secretase, thereby leading to reduced soluble BCMA and increased membrane-bound BCMA.

[5] = 100 mg BID, solid tumor patients; cited from earlier work
[6] = 4-hour treatment, dose-dependent (FIG. 22A)

Structure (SMILES): CCC[C@H](N[C@H]1CCc2cc(F)cc(F)c2C1)C(=O)Nc1cn(C(C)(C)CNCC(C)(C)C)cn1 [PF-03084014, nirogacestat]
- Levels of BCMA on the cell surface (gamma secretase [1]; [6]): increased levels of BCMA detected on the cell surface
- Levels of BCMA on multiple myeloma cells (MFI) (gamma secretase [1]; 24 hours incubation (FIG. 25A)): increased levels of BCMA
- Inhibition of gamma secretase activity (gamma secretase [1]; 24 hours treatment (FIG. 22C)): dose-dependent inhibition of gamma secretase activity
- pEC50 (gamma secretase [1]; 24 hours treatment, flow cytometry of surface BCMA, read-out: EC50 on gamma secretase (surface BCMA) determined using the MM.1S cell line): 9.92
- Levels of BCMA on the cell surface (gamma secretase [2]; [6]): increased levels of BCMA detected on the cell surface
- Inhibition of gamma secretase activity (gamma secretase [2]; 24 hours treatment (FIG. 22C)): dose-dependent inhibition of gamma secretase activity
- pEC50 (gamma secretase [2]; 24 hours treatment, flow cytometry of surface BCMA, read-out: EC50 on gamma secretase (surface BCMA) determined using the Molp-8 cell line): 7.65
- Dose-dependent increase of BCMA on the cell surface (BCMA-negative REH cells): not seen
- Effect on target-dependent BCMA CAR-T cell expansion (BCMA CAR-T cells): did not negatively affect CAR-T cell expansion
- Effect on target cell killing by BCMA CAR-T cells [3]: enhanced target cell killing was not observed
- Effect on cytolytic activity of BCMA CAR T cells (MM.1S cells): enhanced cytolytic effect
- Minimum concentration (Cmin) [4]: approximately 480 nM
- Minimum concentration (Cmin) [5]: 232 ng/mL
